Laboratory results as given in patent US12440433B2, “Brightening cosmetic composition comprising sodium pyruvate as active ingredient” (LG HOUSEHOLD & HEALTH CARE LTD., priority 2020, dated 2025).

System: B16F10 cells
Assay: Melanogenesis inhibitory efficiency test (melanin amount in α-MSH-stimulated B16F10 cells)
Assay type: cell-based
Conditions: 10 nM α-MSH, 48 hours, absorbance at 405 nm, ingredient concentrations (wt %) per Table 1
Description: In order to confirm melanogenesis inhibitory efficacy caused by sodium pyruvate, first, B16F10 cells were dispensed into a 6-well plate at 1×10^5 cells/well and cultured in a DMEM medium containing 10% FBS and 1% penicillin/streptomycin under conditions of 37° C. and 5% CO2 for 24 hours. […] The resulting cells were harvested, added to 100 μl of a lysis buffer (1N NaOH, 10% DMSO), and then allowed to react at 90° C. for 20 minutes, and melanin amounts were measured at 405 nm (EPOCH, Biotek). The melanin amount measurement results are as follows.

| SMILES | Melanin amount (%) |
| --- | --- |
| CC(=O)C(=O)[O-].[Na+] [Comparative Example 11, sodium pyruvate] | 64 |
| CC(=O)C(=O)[O-].[Na+] [compound 9, sodium pyruvate] | 82 |
| NC(=O)NCCO [compound 3, hydroxyethyl urea] | 100 |
| CC(=O)C(=O)[O-].[Na+] [compound 8, sodium pyruvate] | 92 |
| CC(=O)C(=O)[O-].[Na+] [compound 10, sodium pyruvate] | 77 |
| NC(N)=O [compound 4, urea] | 100 |

Same assay, conditions: 10 nM α-MSH, 48 hours, symbol for no effect

| SMILES | Melanogenesis inhibitory efficiency (symbol) |
| --- | --- |
| NC(=O)NCCO [compound 3, hydroxyethyl urea] | *** (100 or more has no effect) |
| NC(N)=O [compound 4, urea] | *** (100 or more has no effect) |

Same assay, conditions: (Melanin amount upon no treatment − upon treatment)/(upon no treatment) × 100, 10 nM α-MSH, 48 hours

| SMILES | Melanogenesis inhibitory efficiency [%] |
| --- | --- |
| CC(=O)C(=O)[O-].[Na+] [Comparative Example 11, sodium pyruvate] | 36 |
| CC(=O)C(=O)[O-].[Na+] [compound 9, sodium pyruvate] | 18 |
| CC(=O)C(=O)[O-].[Na+] [compound 8, sodium pyruvate] | 8 |
| CC(=O)C(=O)[O-].[Na+] [compound 10, sodium pyruvate] | 23 |

Same assay, conditions: urea or hydroxyethyl urea used alone

| SMILES | melanogenesis inhibitory effect (in words) |
| --- | --- |
| NC(=O)NCCO [compound 2, hydroxyethyl urea] | a melanogenesis inhibitory effect was not shown |
| NC(N)=O [compound 4, urea] | a melanogenesis inhibitory effect was not shown |
